Assay results as given in patent US8313740B2 (priority 2006, dated 2012).

Test system: MC38-HER-2 cells
Details: mouse, in vivo

With CC(=O)O[C@@]12CO[C@@H]1C[C@H](O)[C@@]1(C)C(=O)[C@H](O)C3=C(C)[C@@H](OC(=O)[C@H](O)[C@@H](NC(=O)OC(C)(C)C)c4ccccc4)C[C@@](O)([C@@H](OC(=O)c4ccccc4)[C@H]21)C3(C)C [Docetaxel, docetaxel] the “tumor growth, subset A” value was “modest and transient delay of tumor growth”, the “tumor growth, subset B” value was “had no effect on tumor growth” and the “tumor growth, subset C” value was “had no effect on tumor growth”.
